Reference: patent US20250241923A1, “A DUAL SELECTIVE PI3K DELTA AND GAMMA INHIBITORS AND/OR A SALT-INDUCIBLE KINASE 3 INHIBITOR FOR TREATING SOLID TUMORS” (Incozen Therapeutics Pvt. Ltd, priority 2022, published 2025)

How the values were obtained:
MCF-7 cell lines = experiment: Cell proliferation (MTT), Compound M and olaparib, MCF-7; format: cell-based; settings: Homo sapiens, MCF7, olaparib alone (5 μM, FIG. 5), 72 h, read-out: growth inhibition
Procedure: • MCF-7 cells were plated in MEM+10% FBS complete media at pre-determined density in a 96-well plate. • Cells were exposed to either DMSO (control) alone, Compound M alone, olaparib alone, or a combination of Compound M and olaparib. • Cells were incubated for 72 h in presence of the inhibitors. • MTT reaction was performed to determine the cell viability at the end of the treatment period and absorbance was measured at wavelength 560 and 640 nM. • % cell growth inhibitions were calculated, and Tukey's analysis was performed using GraphPad Prism to compare the treated groups.

[1] = tested on: OVCAR-3 ovarian cancer cell lines; experiment: Anti-proliferative activity with PARP inhibitors, OVCAR-3; format: cell-based; settings: Homo sapiens, read-out: growth inhibition
[2] = tested on: MDA-MB-231 breast cancer cell line; experiment: Anti-proliferative effect of taxol (Example 10), MDA-MB-231; format: cell-based; settings: taxol alone (Example 10)
[3] = tested on: ZR.75.1 breast cancer cell line; experiment: Anti-proliferative effect of taxol (Example 10), ZR.75.1; format: cell-based; settings: taxol alone (Example 10)
[4] = tested on: MCF-7 breast cancer cell line; experiment: Anti-proliferative effect of taxol (Example 10), MCF-7; format: cell-based; settings: taxol alone (Example 10)
[5] = tested on: SK-OV-3 ovarian cancer cell line; experiment: Anti-proliferative effect of taxol and Compound (M) (Example 10), SK-OV-3; format: cell-based; settings: Homo sapiens, taxol alone (6 nM, FIG. 7), read-out: growth inhibition
[6] = tested on: MDA-MB-231 breast cancer cell lines; experiment: cells; settings: Homo sapiens, MDA-MB-231, 72 h, read-out: growth inhibition
[7] = tested on: MCF-7 breast cancer cell lines; experiment: cells; settings: Homo sapiens, MCF7, 72 h, read-out: growth inhibition
[8] = tested on: SK-OV-3 ovarian cancer cell lines; experiment: Anti-proliferative activity with PARP inhibitors, SK-OV-3; format: cell-based; settings: Homo sapiens, single agent talazoparib (3 μM, FIG. 6B), read-out: growth inhibition

O=C(c1cc(Cc2n[nH]c(=O)c3ccccc23)ccc1F)N1CCN(C(=O)C2CC2)CC1 [Olaparib]
inhibition at 5 µM (MCF-7 cell lines): 43.2%
inhibition at 3 µM ([1]; olaparib alone (3 μM, FIG. 6C)): 29.3%

CC(=O)O[C@H]1C(=O)[C@@]2(C)[C@H]([C@H](OC(=O)c3ccccc3)[C@]3(O)C[C@H](OC(=O)[C@H](O)[C@@H](NC(=O)c4ccccc4)c4ccccc4)C(C)=C1C3(C)C)[C@]1(OC(C)=O)CO[C@@H]1C[C@@H]2O [Taxol]
growth inhibition [2]: 44.4%
growth inhibition [3]: 25.8%
growth inhibition [4]: 17.3%
inhibition at 0.006 µM [5]: 59.2%
inhibition at 0.003 µM [6]: 34.5%
inhibition at 0.003 µM [7]: 28.8%

Cn1ncnc1[C@H]1c2n[nH]c(=O)c3cc(F)cc(c23)N[C@@H]1c1ccc(F)cc1 [talazoparib]
inhibition at 0.1 µM ([1]; single agent talazoparib (0.1 μM, FIG. 6A)): 40.2%
inhibition at 3 µM [8]: 50%
